Laboratory results taken from patent publication US6897214B2, “Quinazoline derivatives” (Zeneca Limited, priority 1996, dated 2005).

system: xenografts of the human vulval epidermoid carcinoma cell line A-431; assay: Test (d): in vivo inhibition of growth of A-431 xenografts in athymic nude mice; settings: dosage of 50 mg/kg/day
Experimental: (d) An in-vivo assay in a group of athymic nude mice (strain ONU:Alpk) which determines the ability of a test compound (usually administered orally as a ball-milled suspension in 0.5% polysorbate) to inhibit the growth of xenografts of the human vulval epidermoid carcinoma cell line A-431.
A-431 cells were maintained in culture in DMEM supplemented with 5% FCS and 2 mM glutamine. Freshly cultured cells were harvested by trypsinization and injected subcutaneously (10 million cells/0.1 ml/mouse) into both flanks of a number of donor nude mice. When sufficient tumour material was available (after approximately 9 to 14 days), fragments of tumour tissue were transplanted into the flanks of recipient nude mice (test day 0). Generally, on the seventh day after transplantation (test day 7) groups of 7 to 10 mice with similar-sized tumours were selected and dosing of the test compound was commenced. Once-daily dosing of test compound was continued for a total of 13 days (test days 7 to 19 inclusive). In some studies the dosing of the test compound was continued beyond test day 19, for example to test day 26. In each case, on the following day the animals were killed and final tumour volume was calculated from measurements of the length and width of the tumours. Results were calculated as a percentage inhibition of tumour volume relative to untreated controls.

SMILES | inhibition in Test (d) (tumour volume relative to untreated controls) [%]
Fc1ccc(Nc2ncnc3ccc(-c4ccc(CCN5CCOCC5)s4)cc23)cc1Cl [Example 8, 4-(3-chloro-4-fluoroanilino)-6-[5-(2-morpholinoethyl)thien-2-yl]quinazoline] | 64

system: human naso-pharyngeal cancer cell line KB; assay: Test (b): in vitro inhibition of EGF-stimulated growth of KB cells; assay type: cell-based; settings: EGF (10 ng/ml) stimulated growth, MTT
Experimental: (b) An in vitro assay which determines the ability of a test compound to inhibit the EGF-stimulated growth of the human naso-pharyngeal cancer cell line KB.
KB cells were seeded into wells at a density of 1×10^4-1.5×10^4 cells per well and grown for 24 hours in DMEM supplemented with 5% FCS (charcoal-stripped). Cell growth was determined after. incubation for 3 days by the extent of metabolism of MTT tetrazolium dye to furnish a bluish colour. Cell growth was then determined in the presence of EGF (10 ng/ml) or in the presence of EGF (10 ng/ml) and a test compound at a range of concentrations. An IC50 value could then be calculated.

IC50 [nM] | SMILES
190 | Fc1ccc(Nc2ncnc3ccc(-c4ccc(CCN5CCOCC5)s4)cc23)cc1Cl [Example 8, 4-(3-chloro-4-fluoroanilino)-6-[5-(2-morpholinoethyl)thien-2-yl]quinazoline]

target: T1, EGF receptor tyrosine kinase (Homo sapiens, UniProt P00533); assay: Test (a): in vitro inhibition of the enzyme EGF receptor tyrosine kinase; assay type: biochemical; settings: enzyme partially purified from A-431 cells
T1 construct: Receptor tyrosine kinase was obtained in partially purified form from A-431 cells; endogenous in cells; host or cells: A-431 cells (human vulval carcinoma), solubilised membrane preparation
Experimental: (a) An in vitro assay which determines the ability of a test compound to inhibit the enzyme EGF receptor tyrosine kinase. Receptor tyrosine kinase was obtained in partially purified form from A-431 cells (derived from human vulval carcinoma) by the procedures described below which are related to those described by Carpenter et al, J. Biol. Chem., 1979, 254, 4884, Cohen et al., J. Biol. Chem., 1982, 257, 1523 and by Braun et al., J. Biol Chem., 1984, 259, 2051.
A-431 cells were grown to confluence using Dulbecco's modified Eagle's medium DMEM) containing 5% fetal calf serum (FCS). The obtained cells were homogenised in a hypotonic borate/EDTA buffer at pH 10.1. The homogenate was centrifuged at 400 g for 10 minutes at 0-4° C. The supernatant was centrifuged at 25,000 g for 30 minutes at 0-4° C. […]
The test compound/EGF mixture solution (5 μl) was added to the test enzyme solution (10 μl) and the mixture was incubated at 0-4° C. for 30 minutes. […] Radioactivity present in the filter paper was measured using a liquid scintillation counter (Sequence A). […]
Receptor tyrosine kinase inhibition was calculated as follows: [formula]
The extent of inhibition was then determined at a range of concentrations of test compound to give an IC50 value.

T1 sequence (P00533 25-1210): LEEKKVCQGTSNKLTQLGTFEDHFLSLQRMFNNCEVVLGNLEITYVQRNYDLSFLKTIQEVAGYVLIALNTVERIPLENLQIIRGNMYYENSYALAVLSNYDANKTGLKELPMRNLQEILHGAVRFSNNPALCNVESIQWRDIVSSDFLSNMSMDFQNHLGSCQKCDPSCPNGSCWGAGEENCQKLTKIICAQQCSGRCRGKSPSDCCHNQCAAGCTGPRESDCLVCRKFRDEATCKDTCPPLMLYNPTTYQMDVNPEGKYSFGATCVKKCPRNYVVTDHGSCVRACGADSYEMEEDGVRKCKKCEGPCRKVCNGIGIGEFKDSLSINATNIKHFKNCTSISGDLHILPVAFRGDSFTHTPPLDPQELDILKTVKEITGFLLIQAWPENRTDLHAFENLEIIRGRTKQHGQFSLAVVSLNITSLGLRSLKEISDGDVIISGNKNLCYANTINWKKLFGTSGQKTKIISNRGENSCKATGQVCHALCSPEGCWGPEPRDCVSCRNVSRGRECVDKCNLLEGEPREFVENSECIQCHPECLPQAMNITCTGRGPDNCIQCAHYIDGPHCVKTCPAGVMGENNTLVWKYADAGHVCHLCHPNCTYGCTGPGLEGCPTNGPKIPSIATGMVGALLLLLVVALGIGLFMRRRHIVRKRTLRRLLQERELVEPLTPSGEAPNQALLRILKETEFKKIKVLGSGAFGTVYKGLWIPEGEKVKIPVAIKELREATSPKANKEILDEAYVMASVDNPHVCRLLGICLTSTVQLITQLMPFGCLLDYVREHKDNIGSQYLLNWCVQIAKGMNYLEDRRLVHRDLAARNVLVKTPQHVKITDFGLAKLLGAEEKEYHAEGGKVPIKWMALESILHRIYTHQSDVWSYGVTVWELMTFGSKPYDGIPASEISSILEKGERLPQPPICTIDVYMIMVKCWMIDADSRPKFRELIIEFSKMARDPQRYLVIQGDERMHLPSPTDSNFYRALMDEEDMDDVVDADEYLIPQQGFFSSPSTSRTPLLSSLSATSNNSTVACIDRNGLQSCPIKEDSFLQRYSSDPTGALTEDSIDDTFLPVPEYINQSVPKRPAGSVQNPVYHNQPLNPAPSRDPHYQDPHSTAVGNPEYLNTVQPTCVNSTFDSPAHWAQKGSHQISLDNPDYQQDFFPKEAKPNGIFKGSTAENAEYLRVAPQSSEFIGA

IC50 [nM] | SMILES
40 | Fc1ccc(Nc2ncnc3ccc(-c4ccc(CCN5CCOCC5)s4)cc23)cc1Cl [Example 8, 4-(3-chloro-4-fluoroanilino)-6-[5-(2-morpholinoethyl)thien-2-yl]quinazoline]

system: transplanted human mammary carcinoma; assay: not given; settings: carcinoma which does not express EGF receptor tyrosine kinase; cited from earlier work

SMILES | growth of another carcinoma
O=CN/C=C/c1cc(O)ccc1O [erbstatin] | without effect on the growth

same assay, conditions: carcinoma which expresses EGF receptor tyrosine kinase; athymic nude mice; cited from earlier work

SMILES | growth of transplanted human mammary carcinoma
O=CN/C=C/c1cc(O)ccc1O [erbstatin] | specifically attenuates the growth

system: not given; assay: not given; settings: not given

melting point [°C] | SMILES
> 250 | Cl.O=C(Nc1ccc2ncnc(Nc3ccc(F)c(Cl)c3)c2c1)c1cccs1
> 250 | Cl.O=C(Nc1ccc2ncnc(Nc3ccc(F)c(Cl)c3)c2c1)c1ccno1
> 250 | N#Cc1ccc(-c2ccc3ncnc(Nc4ccc(F)c(Cl)c4)c3c2)cc1 [Example 1, 4-(3-chloro-4-fluoroanilino)-6-(4-cyanophenyl)quinazoline]
207 to 209 | Cc1cccc(Nc2ncnc3ccc(-c4ccccc4)cc23)c1 [Example 2, 4-(3-methylanilino)-6-phenylquinazoline]
232 to 234 | Fc1ccc(Nc2ncnc3ccc(-c4ccco4)cc23)cc1Cl [Example 5, 4(3-chloro-4-fluoroanilino)-6-(2-furyl)quinazoline]
205 to 208 | Fc1ccc(Nc2ncnc3ccc(-c4cccs4)cc23)cc1Cl [Example 6, 4-(3-chloro-4-fluoroanilino)-6-(2-thienyl)quinazoline]
195 to 197 | Fc1ccc(Nc2ncnc3ccc(-c4ccsc4)cc23)cc1Cl [Example 7, 4-(3-chloro-4-fluoroanilino)-6-(3-thienyl)quinazoline]
256 to 258 | Cc1cccc(Nc2ncnc3ccc(Nc4ncc[nH]4)cc23)c1 [Example 14, 6-(2-imidazolylamino)-4-(3-methylanilino)quinazoline]
> 250 | Cc1cccc(Nc2ncnc3ccc(NS(=O)(=O)c4cn(C)cn4)cc23)c1 [Example 15, 4-(3-methylanilino)-6-(1-methylimidazole-4-sulphonamido)quinazoline]
207 to 208 | Cc1cccc(Nc2ncnc3ccc(NCc4ccsc4)cc23)c1 [Example 16, 4-(3-methylanilino)-6-(3-thienylmethylamino)quinazoline]
193 to 195 | Fc1ccc(Nc2ncnc3ccc(NCc4cccs4)cc23)cc1Cl [Example 19, 4-(3-chloro-4-fluoroanilino)-6-(2-thienylmethylamino)quinazoline]
> 260 | CNc1cc2ncnc(Nc3ccc(F)c(Cl)c3)c2cc1NC(=O)c1cccnc1 [Example 24, 4-(3-chloro-4-fluoroanilino)-7-methylamino-6-(pyridine-3-carboxamido)quinazoline]
64 to 68 | Cc1cccc(Nc2ncnc3ccc(CSc4c[nH]nn4)cc23)c1 [Example 34, 4-(3-methylanilino)-6-(1,2,3-triazol-4-ylthiomethyl)quinazoline]
137 to 139 | Cc1cccc(Nc2ncnc3ccc(CSc4nccn4C)cc23)c1 [Example 35, 4-(3-methylanilino)-6-(N-methylimidazol-2-ylthiomethyl)quinazoline]
217 to 219 | Cc1cccc(Nc2ncnc3ccc(CSc4ncc[nH]4)cc23)c1 [Example 36, 6-(2-imidazolylthiomethyl)-4-(3-methylanilino)-quinazoline]
123 to 129 | Cc1cccc(Nc2ncnc3ccc(CSc4nc5ccccc5[nH]4)cc23)c1 [Example 37, 6-(2-benzimidazolylthiomethyl)-4-(3-methylanilino)quinazoline]
205 to 206 | Cc1cc(Nc2ncnc3ccc(-c4cccs4)cc23)ccc1OCc1ccccn1 [Example 38, 4-[3-methyl-4-(2-pyridylmethoxy)anilino]-6-(2-thienyl)-quinazoline]
206 to 208 | Cc1cc(Nc2ncnc3ccc(-c4ccoc4)cc23)ccc1OCc1ccccn1 [Example 39, 6-(3-furyl)-4-[3-methyl-4-(2-pyridylmethoxy)anilino]-quinazoline]
